Experimental data: ChEMBL document CHEMBL4840352 (J Med Chem, 2021)
pIC50: −log10 of the molar value.

How the values were obtained:
MV4-11 = assay: Antiproliferative activity against human MV4-11 cells incubated for 48 hrs by CCK-8 assay; assay type: functional, cell-based; conditions: MV4-11, 48 h
MOLM-13 = assay: Antiproliferative activity against human MOLM-13 cells incubated for 48 hrs by CCK-8 assay; assay type: functional, cell-based; conditions: MOLM-13, 48 h
[1] = test system: Receptor-type tyrosine-protein kinase FLT3 (Homo sapiens), P36888 [UNDEFINED MUTATION]; assay: Induction of FLT3-ITD degradation in human MV4-11 cells after 24 hrs by Western blot analysis; assay type: cell-based
Sequence of Receptor-type tyrosine-protein kinase FLT3 (Homo sapiens), P36888 [UNDEFINED MUTATION] (P36888 whole entry, looked up, change not shown): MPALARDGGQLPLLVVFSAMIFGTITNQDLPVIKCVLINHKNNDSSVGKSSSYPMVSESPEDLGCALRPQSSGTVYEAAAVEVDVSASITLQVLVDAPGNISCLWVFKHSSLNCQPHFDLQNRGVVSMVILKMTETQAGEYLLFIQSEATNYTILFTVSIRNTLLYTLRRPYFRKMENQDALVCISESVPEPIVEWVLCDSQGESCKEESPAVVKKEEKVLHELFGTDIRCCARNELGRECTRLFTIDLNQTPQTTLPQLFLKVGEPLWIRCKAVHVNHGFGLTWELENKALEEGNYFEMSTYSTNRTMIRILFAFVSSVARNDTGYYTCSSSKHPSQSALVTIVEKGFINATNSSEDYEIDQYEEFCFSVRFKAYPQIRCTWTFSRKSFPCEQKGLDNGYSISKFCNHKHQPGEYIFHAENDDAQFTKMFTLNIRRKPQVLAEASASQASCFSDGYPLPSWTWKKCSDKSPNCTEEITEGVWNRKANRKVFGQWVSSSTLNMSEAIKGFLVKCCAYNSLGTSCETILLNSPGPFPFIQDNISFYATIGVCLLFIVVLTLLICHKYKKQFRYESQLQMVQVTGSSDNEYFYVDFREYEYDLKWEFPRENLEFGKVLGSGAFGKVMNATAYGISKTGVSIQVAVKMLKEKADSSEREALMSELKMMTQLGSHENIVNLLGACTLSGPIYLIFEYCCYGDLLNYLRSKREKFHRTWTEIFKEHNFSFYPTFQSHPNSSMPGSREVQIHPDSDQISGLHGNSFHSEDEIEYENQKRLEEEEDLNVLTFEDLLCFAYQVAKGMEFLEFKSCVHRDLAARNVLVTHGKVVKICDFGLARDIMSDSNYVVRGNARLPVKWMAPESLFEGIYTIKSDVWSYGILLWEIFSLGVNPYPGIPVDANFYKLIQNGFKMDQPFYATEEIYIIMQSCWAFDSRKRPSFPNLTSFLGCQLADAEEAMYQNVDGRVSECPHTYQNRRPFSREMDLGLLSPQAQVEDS

[2] = test system: Receptor-type tyrosine-protein kinase FLT3 (Homo sapiens), P36888 [UNDEFINED MUTATION]; assay: Induction of FLT3-ITD degradation in human MOLM-13 cells after 24 hrs by Western blot analysis; assay type: cell-based

Structure (SMILES)	pIC50 (MV4-11)	pIC50 (MOLM-13)	Activity [1]	Activity [2]
Cc1ncsc1-c1ccc(CNC(=O)[C@H]2C[C@H](O)CN2C(=O)[C@H](NC(=O)CCCCC(=O)N2CCN(c3ccc4[nH]c(-c5c(N)c6c(F)cccc6[nH]c5=O)nc4c3)CC2)C(C)(C)C)cc1	6.38	6.73	–	–
CN1C(=O)CCC(N2C(=O)c3cccc(NCCCCCC(=O)N4CCN(c5ccc6[nH]c(-c7c(N)c8c(F)cccc8[nH]c7=O)nc6c5)CC4)c3C2=O)C1=O (stereo not drawn)	6.33	6.85	Dose-Dependent Effect	Dose-Dependent Effect
Nc1c(-c2nc3cc(N4CCN(CCC(=O)Nc5cccc6c5C(=O)N(C5CCC(=O)NC5=O)C6=O)CC4)ccc3[nH]2)c(=O)[nH]c2cccc(F)c12 (stereo not drawn)	< 6.00	< 6.00	–	–
Nc1c(-c2nc3cc(N4CCN(C(=O)CCCC#Cc5cccc6c5C(=O)N(C5CCC(=O)NC5=O)C6=O)CC4)ccc3[nH]2)c(=O)[nH]c2cccc(F)c12 (stereo not drawn)	6.37	7.03	–	–
Nc1c(-c2nc3cc(N4CCN(C(=O)CCCCCCNc5cccc6c5C(=O)N(C5CCC(=O)NC5=O)C6=O)CC4)ccc3[nH]2)c(=O)[nH]c2cccc(F)c12 (stereo not drawn)	6.38	6.89	–	–

Results, then the compound that gave them:

pIC50 (MV4-11)	pIC50 (MOLM-13)	Activity [1]	Activity [2]	Structure (SMILES)
< 6.00	6.12	–	–	Nc1c(-c2nc3cc(N4CCN(CCCCC(=O)Nc5cccc6c5CN(C5CCC(=O)NC5=O)C6=O)CC4)ccc3[nH]2)c(=O)[nH]c2cccc(F)c12 (stereo not drawn)
< 6.00	< 6.00	–	–	Nc1c(-c2nc3cc(N4CCN(CCCCCCC(=O)Nc5cccc6c5CN(C5CCC(=O)NC5=O)C6=O)CC4)ccc3[nH]2)c(=O)[nH]c2cccc(F)c12 (stereo not drawn)
6.25	< 6.00	–	–	Nc1c(-c2nc3cc(N4CCN(CCCCCC(=O)Nc5cccc6c5C(=O)N(C5CCC(=O)NC5=O)C6=O)CC4)ccc3[nH]2)c(=O)[nH]c2cccc(F)c12 (stereo not drawn)
